From patent US20240131168A1, “NAPHTHALENE RING-CONTAINING COMPOUND, PHARMACEUTICAL COMPOSITION CONTAINING SAME, AND USE THEREOF” (JIANGSU YAHONG MEDITECH CO., LTD., priority 2021, published 2024)
Like-named read-outs stand apart in the source and are kept apart here.

Key:
Type in all cases: cell-based
MCF-7 = experiment: CellTiter-Glo cell proliferation inhibition, MCF-7 (Effect Example 2); conditions: Homo sapiens, MCF7, 144 h; MCF-7 (CTG), 6 days, starting concentration 10 μM; read-out: IH % max (maximum inhibition percentage)
Excerpt: (§1) 1. Cell line • (1) Breast cancer cell lines and their culture media: • MCF-7 (ATCC; Cat. No.: HTB-22), a Luminal A breast cancer cell; • TamR-MCF-7 (ATCC; Cat. No.: CRL-3435), a breast cancer cell; • MCF-7 ER^D538G: a Luminal A breast cancer cell obtained by constructing MCF-7 (ATCC; Cat. No.: HTB-22) using CRISPR-Cas9 gene editing technology; • MCF-7 ER^Y537S: a Luminal A breast cancer cell obtained by constructing MCF-7 (ATCC; Cat. No.: HTB-22) using CRISPR-Cas9 gene editing technology; • MDA-MB-231: (manufacturer: Nanjing CoBioer Biosciences Co., Ltd.), a triple-negative breast cancer cell; • MDA-MB-468: (manufacturer: Nanjing CoBioer Biosciences Co., Ltd.), a triple-negative breast cancer cell.
(§2) Herein, the culture medium of MCF-7, TamR-MCF-7, MCF-7 ER^D538G, and MCF-7 ER^Y537S was EMEM; • the culture medium of MDA-MB-231 and MDA-MB-468 was DMEM.
(§3) 2. Reagents • Culture medium EMEM (Gibco, 1964507) • Culture medium DMEM (Gibco, 12430-054) • Fetal bovine serum (Gibco, 10091148) • Penicillin-streptomycin double antibody (Gibco, S110JV) • DPBS (Gibco, 14190-144) • CellTiter-Glo® assay kit (Promega, G7573) • Trypsin (0.25%) (Gibco, 25200-056) • DMSO (Sigma, D2650)
(§4) 3. Instruments • Biosafety cabinet (AIRTECH, BSC-1300A II) • Automated cell counter (Life Technologies, countess II) • Multifunctional microplate reader (Biotek, H1FM) • Orbital shaker (Hangzhou Allsheng Instruments Co., Ltd., OS-100) • XLFIT 5.3 (Inforstack Shanghai Co., Ltd.)
(§5) For this test method, the following experiments were performed in a biosafety cabinet, with the specific steps as follows: • (1) Cells were inoculated in a 96-well plate. One day later, the previous culture medium was poured off, 5 mL of DPBS was added to wash the cells, and then DPBS was pipetted and discarded. An appropriate amount of trypsin was then added. The plate was digested in a 37° C., 5% CO2 cell incubator for about 2 to 5 minutes and then taken out. Anew corresponding culture medium was added, and pipetted up and down to resuspend the cells evenly. The cells were then counted using an automated cell counter. • (2) Each cell was inoculated in columns 1 to 11 of a 96-well plate (Corning, Cat. No.: 3610) at a density of 1,000 or 2,000 cells per well in 100 μL of culture medium, and 100 μL of the corresponding culture medium without cells was added to the wells in column 12. The plate was then placed in a 37° C., 5% CO2 incubator for 24 hours. • (3) The compound of the present disclosure and the control drug fulvestrant (Selleck; Cat. No.: S1191) were then 4-fold serially diluted to 10 dose points starting at 10 μM. 10 μL of the serially diluted compound was pipetted and added to 100 μL of cells in columns 1 to 10, and 10 μL of the corresponding culture medium containing 0.33 v % DMSO was added to both columns 11 and 12. The plate was incubated in a 37° C., 5% CO2 incubator for 6 days or 72 hours (Note: column 11 was used as a MAX well with cells but without compound; column 12 was used as a MIN well without cells […]). • (4) The cell viability detection reagent in the CellTiter-Glo® assay kit was then added to the 96-well plate at 50 μL per well according to the instructions, and shaken on an orbital shaker in the dark for 5 to 10 minutes. The cell viability was then measured using a multifunctional microplate reader. Finally, the inhibition of cell proliferation by the compound of the present disclosure was plotted by XLFIT software, and the IC50 value (half inhibitory concentration) and the IH % max (maximum inhibition percentage) of the compound of the present disclosure were calculated.

MCF-7 ER^D538G = experiment: CellTiter-Glo cell proliferation inhibition, MCF-7 ER^D538G; conditions: Homo sapiens, MCF7, 144 h, MCF-7 ER^D538G (CTG), 6 days, starting concentration 10 μM; for inhibition at up to 10 µM: read-out: IH % max (maximum inhibition percentage)
Excerpt: as §1, §2, §3, §4, §5

MDA-MB-231 = experiment: CellTiter-Glo cell proliferation inhibition, MDA-MB-231; conditions: Homo sapiens, MDA-MB-231 (CTG), starting concentration 10 μM; for inhibition at up to 10 µM: read-out: IH % max (maximum inhibition percentage)
Excerpt: as §1, §2, §3, §4, §5
(§6) Compounds D64 to D69 were tested for MDA-MB-231 (CTG) and MDA-MB-468 (CTG) with an incubation time of 72 hours in the incubator.

MDA-MB-468 = experiment: CellTiter-Glo cell proliferation inhibition, MDA-MB-468; conditions: Homo sapiens, MDA-MB-468 (CTG), starting concentration 10 μM; for inhibition at up to 10 µM: read-out: IH % max (maximum inhibition percentage)
Excerpt: as §1, §2, §3, §4, §5, §6

MCF-7 ER^Y537S = experiment: CellTiter-Glo cell proliferation inhibition, MCF-7 ER^Y537S; conditions: Homo sapiens, MCF7, 144 h; MCF-7 ER^Y537S (CTG), 6 days, starting concentration 10 μM; read-out: IH % max (maximum inhibition percentage)
Excerpt: as §1, §2, §3, §4, §5

TamR-MCF-7 = experiment: CellTiter-Glo cell proliferation inhibition, TamR-MCF-7; conditions: 144 h; TamR-MCF-7 (CTG), 6 days, starting concentration 10 μM; read-out: IH % max (maximum inhibition percentage)
Excerpt: as §1, §2, §3, §4, §5

[1] = incubation time 72 hours (D64 to D69)

| SMILES | IC50 (MCF-7 ER^D538G) [nM] | IC50 (MDA-MB-468; [1]) [nM] | IC50 (MDA-MB-231; [1]) [nM] | inhibition at up to 10 µM (MCF-7) [%] | inhibition at up to 10 µM (MCF-7 ER^D538G) [%] | inhibition at up to 10 µM (MDA-MB-231; 144 h, 6 days) [%] | inhibition at up to 10 µM (MDA-MB-468; [1]) [%] | inhibition at up to 10 µM (MDA-MB-231; [1]) [%] | inhibition at up to 10 µM (MCF-7 ER^Y537S) [%] | inhibition at up to 10 µM (TamR-MCF-7) [%] | inhibition at up to 10 µM (MDA-MB-468; 144 h, 6 days) [%] |
| --- | --- | --- | --- | --- | --- | --- | --- | --- | --- | --- | --- |
| CN(C)C(=O)c1ccc(-c2ccc3ccccc3c2Oc2ccc(OCCN3CCN(c4ccc5c(c4)CN(C4CCC(=O)NC4=O)C5=O)CC3)cc2)cc1 (stereo not shown) [Compound D68, 4-(1-(4-(2-(4-(2-(2,6-dioxopiperidin-3-yl)-1-oxoisoindolin-5-yl)piperazin-1-yl)ethoxy)phenoxy)naphthalen-2-yl)-N,N-dimethylbenzamide] | – | 35.4 | 44.2 | – | – | – | 59.3 | 71.5 | – | – | – |
| CCN(CCOCCOCCN1CCN(c2cccc3c2CN(C2CCC(=O)NC2=O)C3=O)CC1)CCOc1ccc(Oc2c(-c3ccc(S(C)(=O)=O)cc3)ccc3cc(O)ccc23)cc1 (stereo not shown) [Compound D40] | – | – | – | 34 | 72 | – | – | – | 61 | 31 | 71 |
| CNC(=O)c1ccc(-c2ccc3cc(O)ccc3c2Oc2ccc(OCCN3CCN(c4ccc5c(c4)CN(C4CCC(=O)NC4=O)C5=O)CC3)cc2)cc1 (stereo not shown) [Compound D64, 4-(1-(4-(2-(4-(2-(2,6-dioxopiperidin-3-yl)-1-oxoisoindolin-5-yl)piperazin-1-yl)ethoxy)phenoxy)-6-hydroxynaphthalen-2-yl)-N-methylbenzamide] | – | 19.3 | 9.8 | – | – | – | 87 | 79.8 | – | – | – |
| CCN(CCOc1ccc(Oc2c(-c3ccc(S(C)(=O)=O)cc3)ccc3cc(O)ccc23)cc1)CC(=O)N1CCN(c2ccc3c(c2)CN(C2CCC(=O)NC2=O)C3=O)CC1 (stereo not shown) [Compound D7, 3-(5-(4-(N-ethyl-N-(2-(4-((6-hydroxy-2-(4-(methylsulfonyl)phenyl)naphthalen-1-yl)oxy)phenoxy)ethyl)glycyl)piperazin-1-yl)-1-oxoisoindolin-2-yl)piperidine-2,6-dione] | – | – | – | 49 | 40 | – | – | – | 60 | 47 | 63 |
| CNC(=O)c1ccc(-c2ccc3ccccc3c2Oc2ccc(OC(=O)N3CCN(c4ccc5c(c4)CN(C4CCC(=O)NC4=O)C5=O)CC3)cc2)cc1 (stereo not shown) [Compound D69, 4-((2-(4-(methylcarbamoyl)phenyl)naphthalen-1-yl)oxy)phenyl 4-(2-(2,6-dioxopiperidin-3-yl)-1-oxoisoindolin-5-yl)piperazine-1-carboxylate] | – | 2.7 | 2.2 | – | – | – | 92.8 | 91.7 | – | – | – |
| CCN(CCOCCOCCNc1cccc2c1CN(C1CCC(=O)NC1=O)C2=O)CCOc1ccc(Oc2c(-c3ccc(S(C)(=O)=O)cc3)ccc3cc(O)ccc23)cc1 (stereo not shown) [Compound D26, 3-(4-((2-(2-(2-(ethyl(2-(4-((6-hydroxy-2-(4-(methylsulfonyl)phenyl)naphthalen-1-yl)oxy)phenoxy)ethyl)amino)ethoxy)ethoxy)ethyl)amino)-1-oxoisoindolin-2-yl)piperidine-2,6-dione] | – | – | – | 55 | 75 | – | – | – | 43 | 35 | 37 |

Further lines, with some results ahead:

| IC50 (MCF-7 ER^D538G) [nM] | IC50 (MDA-MB-468; [1]) [nM] | IC50 (MDA-MB-231; [1]) [nM] | SMILES | inhibition at up to 10 µM (MCF-7) [%] | inhibition at up to 10 µM (MCF-7 ER^D538G) [%] | inhibition at up to 10 µM (MDA-MB-231; 144 h, 6 days) [%] | inhibition at up to 10 µM (MDA-MB-468; [1]) [%] | inhibition at up to 10 µM (MDA-MB-231; [1]) [%] | inhibition at up to 10 µM (MCF-7 ER^Y537S) [%] | inhibition at up to 10 µM (TamR-MCF-7) [%] | inhibition at up to 10 µM (MDA-MB-468; 144 h, 6 days) [%] |
| --- | --- | --- | --- | --- | --- | --- | --- | --- | --- | --- | --- |
| 761 | – | – | CS(=O)(=O)c1ccc(-c2ccc3cc(O)ccc3c2Oc2ccc(N3CCN(CC(=O)N4CCN(c5ccc6c(c5)CN(C5CCC(=O)NC5=O)C6=O)CC4)CC3)cc2)cc1 (stereo not shown) [Compound D12, 3-(5-(4-(2-(4-(4-((6-hydroxy-2-(4-(methylsulfonyl)phenyl)naphthalen-1-yl)oxy)phenyl)piperazin-1-yl)acetyl)piperazin-1-yl)-1-oxoisoindolin-2-yl)piperidine-2,6-dione] | 45 | 68 | 37 | – | – | – | – | – |
| – | 2.2 | 1.4 | CS(=O)(=O)c1ccc(-c2ccc3ccccc3c2Oc2ccc(OC(=O)N3CCN(c4ccc5c(c4)CN(C4CCC(=O)NC4=O)C5=O)CC3)cc2)cc1 (stereo not shown) [Compound D66, 4-((2-(4-(methylsulfonyl)phenyl)naphthalen-1-yl)oxy)phenyl 4-(2-(2,6-dioxopiperidin-3-yl)-1-oxoisoindolin-5-yl)piperazine-1-carboxylate] | – | – | – | 90.6 | 85.4 | – | – | – |
| – | 29 | 3.6 | O=C1CCC(N2Cc3cc(N4CCN(CCOc5ccc(Oc6c(-c7ccc(C(=O)N8CCCC8)cc7)ccc7cc(O)ccc67)cc5)CC4)ccc3C2=O)C(=O)N1 (stereo not shown) [Compound D65, 3-(5-(4-(2-(4-((6-hydroxy-2-(4-(pyrrolidine-1-carbonyl)phenyl)naphthalen-1-yl)oxy)phenoxy)ethyl)piperazin-1-yl)-1-oxoisoindolin-2-yl)piperidine-2,6-dione] | – | – | – | 83.6 | 83.6 | – | – | – |
| – | 4.4 | 3.7 | CN(C)C(=O)c1ccc(-c2ccc3ccccc3c2Oc2ccc(OC(=O)N3CCN(c4ccc5c(c4)CN(C4CCC(=O)NC4=O)C5=O)CC3)cc2)cc1 (stereo not shown) [Compound D67, 4-((2-(4-(dimethylcarbamoyl)phenyl)naphthalen-1-yl)oxy)phenyl 4-(2-(2,6-dioxopiperidin-3-yl)-1-oxoisoindolin-5-yl)piperazine-1-carboxylate] | – | – | – | 83.6 | 79.2 | – | – | – |
| 158 | – | – | CCN(CCOCCOCCOCCNc1cccc2c1C(=O)N(C1CCC(=O)NC1=O)C2=O)CCOc1ccc(Oc2c(-c3ccc(S(C)(=O)=O)cc3)ccc3cc(O)ccc23)cc1 (stereo not shown) [Compound D39, 2-(2,6-dioxopiperidin-3-yl)-4-((3-ethyl-1-(4-((6-hydroxy-2-(4-(methylsulfonyl)phenyl)naphthalen-1-yl)oxy)phenoxy)-6,9,12-trioxa-3-azatetradecan-14-yl)amino)isoindoline-1,3-dione] | 35 | 73 | – | – | – | 48 | 32 | 51 |
